From a melting point compilation (Tetko et al.; mined from patent text by program, amines drawn as free bases though some values may be those of a salt) come the findings set out here.

In general, melting point refers to the temperature, or range, at which the solid turns liquid. Consider `S=c1n(CCc2ccc(-c3nnn[nH]3)cc2)ccn1C1CCc2ccccc2C1` (configuration not stated), for which the melting point fell in the range of 218 to 220 °C.
`Nc1ccc(C(=O)Nc2ccc(N)cc2Cl)cc1` displayed a melting point of 194 to 197 °C.
The compound `CC(C)Oc1cc(F)c2c(c1)Oc1cc(F)ccc1S2(=O)=O` displayed a melting point of 148 to 151 °C.
Take `COc1cc2c(c(Cl)c1Cl)C(=O)C(c1ccccc1)C2` (configuration not stated): the melting point was 187 to 192 °C.
To `COC(=O)c1cnn(C)c1Cl` belongs 69 to 70 °C; to `CC(=O)OCC1OC(n2c(Cl)nc3c(Cl)cc(Cl)cc32)C(OC(C)=O)C1OC(C)=O` (configuration not stated), 165 to 167 °C.
The value for `CS(=O)(=O)c1cc(Br)ccc1C(=O)O` was 220 °C.
To `O=C(Nc1cc(Cl)cc(Cl)c1)c1cc(I)ccc1O` belongs 244 to 245 °C; to `COc1cccc(Oc2c(NS(=O)(=O)c3ccc(C(C)(C)C)cc3)ncnc2OCCCO)c1`, 113 to 114 °C; to `Cc1cc(C)nc(NCC#N)c1`, 92 to 93 °C.
In the case of `O=[N+]([O-])CC(SC(=S)N1CCCC1)c1ccccc1` (configuration not stated), the melting point fell in the range of 116 to 120 °C.
`Cc1nnc(-c2ccc3scc(-c4ccc(S(C)(=O)=O)cc4)c3c2)o1` gave a melting point of 231 to 232 °C.
Compound `CC1CCCC1(O)c1ccc(C#N)c2ccccc12` (configuration not stated) displayed a melting point of 121 to 122 °C.
For the compound `CCCCc1cn(CCC(C)C)c(=O)n1Cc1ccc(-c2ccccc2-c2nnn[nH]2)nc1`, the melting point was in the range of 168 to 170 °C.
On to `C#CCOc1ccc2nc(N)c3nc4n(c3c2c1)C(C)COC4` (configuration not stated), for which the melting point fell in the range of 184 to 186 °C.
The value for `O=c1c2c([nH]c3nc(N4CCCCC4)nn13)CCCS2` was above 350 °C; that for `COc1ccc2nc(SCc3nccc(OC)c3OC)[nH]c2n1` was 157 °C; that for `C#CCn1c(=O)c(C(F)(F)F)cc2cc(F)c(-n3c(=O)cc(C(F)(F)F)n(C)c3=O)cc21` was 248 to 250 °C.
To `CC(C)Nc1ncnc2c1ncn2Cc1c(Cl)cccc1Cl` belongs 109 to 110 °C; to `Cc1cncn1Cc1ccc2ccc3c(c2c1)C(C)(C)C(=O)O3`, 88 to 91 °C; to `COC(C)CCC1(O)C2=NCCCN2c2cccc(Cl)c21` (configuration not stated), 164 to 165 °C.
As for `CNC(=O)c1ccccc1Nc1nc(Nc2cc3c(cc2OC)CCN(CC(=O)N(C)C)CC3)ncc1Br`, the melting point was 225 °C.
`NCCc1cccc(N2C(=O)N(c3cc(Cl)ccc3Cl)Cc3cnc(Nc4ccccc4)nc32)c1` yielded a melting point of 120 to 123 °C.
The compound `COCCNc1nc2c(N)nc3ccccc3c2n1CC(C)(C)O` came in with a melting point of 176 to 178 °C.
Compound `COc1ccc(S(=O)(=O)C(CC(=O)NO)Cc2ccccc2)cc1OC` (configuration not stated) returned a melting point of 77 to 79 °C.
To `O=S(=O)(NCC(O)CN1c2ccccc2CCc2ccccc21)c1ccc(OC(F)(F)F)cc1` (configuration not stated) belongs 102 to 103 °C.
In turn, `COc1cc(C(Cl)(Cl)Cl)cc(OC)n1` had a melting point of 71 to 73 °C.
To `COc1ccc(NN=C(Cl)C(C)=O)cc1` belongs 114 to 116 °C; to `CC[C@@H](c1ccccc1)N(Cc1ccc(C(=O)O)c(F)c1F)S(=O)(=O)c1ccc(Cl)cc1`, 127 to 129 °C.
Consider `O=C(NCc1ccc(Cl)cc1)c1cnc2c(F)cc(C#CCO)cc2c1O`, for which the melting point lay in the range of 277 to 279 °C.
In the case of `NNN=CNCCC(=O)O`, the melting point fell in the range of 177 to 179 °C.
`COCCn1cnc2ccc(-c3sc(N)nc3-c3cccc(C)n3)cc21` gave a melting point of 200 to 202 °C.
In the case of `COc1ccccc1N1CCN(CCCNC(=O)c2cccc3c(=O)cc(-c4ccccc4)sc23)CC1`, the melting point was in the range of 144 to 146 °C.
Consider `CCCc1c(OCCCOc2c(C(C)=O)ccc(OCCCC(=O)O)c2CCC)ccc(C(C)=O)c1O`, for which the melting point is 96 to 99 °C.
With `CCOc1ccc(-c2ccc(=O)[nH]n2)cc1OC`, the melting point stood at 172 °C.
Compound `CN(C)NC1=C2N=c3cc(Cl)ccc3=C2Oc2ccccc2N1C` yielded a melting point of 196 to 197 °C.
The value for `CCCCc1oc2ccccc2c1C(=O)Nc1ccc2cc(OCC#N)ccc2c1` was 122 to 124 °C; that for `CC(C)(C)OC(=O)N1CCn2c(Cl)c(-c3ccccc3)c(C(N)=O)c2C1` was 178 to 180 °C; that for `O=C(O)[C@H]1C[C@H](NC(=S)Nc2ccccc2)c2c(Cl)cc(Cl)cc2N1` (relative stereo) was 186 to 187 °C.
In turn, `CCCCCCCCCCn1c(=O)n(C2OC(CO)C(O)C2O)c2nc(N)[nH]c(=O)c21` (configuration not stated) showed a melting point of 174 to 176 °C.
In turn, `O=C(c1ccccc1F)C1CCN(C(=O)Oc2ccccc2)CC1` yielded a melting point of 95 to 96 °C.
The compound `CN(C)CC1(C2(O)CCCCC2)Cc2cc3ccn(C)c3cc21` (configuration not stated) gave a melting point of 148 to 150 °C.
In turn, `O=S(=O)(NCc1ccnc2c(Cl)cccc12)c1ccc(Br)cc1` yielded a melting point of 185 °C.
To `N#Cc1ccc(N2C(=O)C3=CCCN3C2=O)c2ccccc12` belongs 230 to 232 °C; to `COc1cc(COc2nn(-c3ccccc3)cc2C=O)ccc1OCc1nc(-c2ccccc2)oc1C`, 142 to 143 °C.
For `CCOC(=O)Cc1csc2nc(C(=O)NCc3cccc(OC)c3)[nH]c(=O)c12`, the melting point was 169 to 171 °C.
The compound `Cc1ccc(C(=O)c2cccc3c2CCC3C(=O)O)cc1` (configuration not stated) showed a melting point of 128 to 131 °C.
As to `CCCCNC(=N)OC(=N)N(CCCC)c1cccc(-c2ccnc3c(C(=O)c4cccs4)cnn23)c1`, the melting point was in the range of 180 to 181 °C.
The value for `COCN1C(C)=C(C(=O)OC)[C@H](c2cccc([N+](=O)[O-])c2)C(C(=O)OCOC(=O)C(C)(C)C)=C1C` was 113 to 114 °C; that for `CC(C)NC(=O)CCCCc1cc(O)c(O)c([N+](=O)[O-])c1` was 113 to 115 °C.
`CCNC(=O)Cc1ccc(C(=O)c2ccc(Cl)cc2)n1C` came in with a melting point of 187 to 188 °C.
For `COCc1ccc(C2(O)CCN(CC(O)c3ccc(O)cc3)CC2)cc1` (configuration not stated), the melting point was found to be 170 °C.
Compound `CC(C)(C)OC(=O)NCCNC(=O)c1n[nH]cc1-c1ccccc1` had a melting point of 71 °C.
Compound `Nc1nnc(C(F)(F)C(Cl)Cl)s1` yielded a melting point of 181 to 182 °C.
In turn, `CNC(=O)c1cc2nc(C(F)(F)F)ccc2c(C)c1NC(=O)c1cc(C(F)(F)F)nn1-c1ncccc1Cl` showed a melting point of 227 to 230 °C.
The value for `COc1ccc(C(=O)Nc2ccccc2)cc1NC(=S)Nc1ccc(OC)c(OC)c1` was 170 to 171 °C; that for `CS(=O)(=O)Nc1ccc(CCN2CCCCC2)cc1` was 123 to 124 °C; that for `Cc1ccc2nc(-c3ccc(C=O)cc3)cn2c1` was 210 to 211 °C.
`CCCCCCCNC(=O)Nc1ccccc1C(=O)N1CCN(C(c2ccccc2)c2ccccc2)CC1` had a melting point of 125 to 127 °C.
For the compound `O=C(CCCN1CCOCC1)c1ccc2c(c1)Cc1cc(C(=O)CCCN3CCOCC3)ccc1-2`, the melting point lay in the range of 166 to 168 °C.
Compound `Cc1ccc(S(=O)(=O)NC2CCCCNC2=O)cc1` (configuration not stated) had a melting point of 180 °C.
As to `Cc1ccc(C)c2[nH]c(N)nc12`, the melting point lay within 164 to 170 °C.
The value for `CC(CO)c1ccc(-c2ccccc2)c(F)c1` (configuration not stated) was 61 to 63 °C; that for `COc1nc(C)cnc1NS(=O)(=O)c1cccnc1-c1ccc(CC(C)C)cc1` was 128 to 129 °C; that for `Cn1cc(Cl)c2c1C(=O)Nc1ccccc1N2` was 172 to 175 °C.
`COCCNC(=O)c1cccc(-c2cccc3cc(Cc4cccc(C(F)(F)F)c4)sc23)c1` yielded a melting point of 113 to 114 °C.
`O=C[C@H](OCc1ccccc1)[C@@H](OCc1ccccc1)[C@H](OCc1ccccc1)[C@H](O)COCc1ccccc1` showed a melting point of 151 °C.
The value for `CC(C)(C)OC(=O)COC1CCN(C(=O)CC(=O)Nc2ccc(C(N)=NO)cc2)CC1` was 161 to 163 °C; that for `CCCCn1c(=O)c(-c2c(Cl)cccc2Cl)cc2cnc(N)nc21` was 202 to 205 °C; that for `Cc1cc(Cl)ccc1N=CN(C)SN(C)c1ccccc1` was 65 to 67 °C.
Regarding `Cc1ccc(C2c3c(C)c(N4Cc5cc(Cl)c(Cl)cc5C4)c(C)c(C)c3OC2(C)C)cc1` (configuration not stated), the melting point lay within 201 to 203 °C.
As to `CC(C)c1cc(C2SCC(=O)N2CCCCl)cc(C(C)C)c1O` (configuration not stated), the melting point fell in the range of 105 to 106 °C.
`c1ccc2oc(-c3nc(COc4ccc(CCCn5ccnc5)cc4)co3)cc2c1`: the melting point was 122 to 123 °C.
For `COc1cc(C(=O)c2c(C)c(C(=O)OCc3ccccc3)c3cc(NC(=O)OC(C)(C)C)ccn23)ccc1[N+](=O)[O-]`, the melting point stood at 95 °C.
`COc1cn(-c2ccc(-n3cccn3)cc2F)nc(-c2ccnn2-c2cccc(OC(F)(F)F)c2)c1=O`: the melting point was 148 to 150 °C.
As for `Cc1cnc2n1-c1ccc(Cl)cc1C(c1ccccc1Cl)=NC2`, the melting point was 148 to 149 °C.
To `O=C(O)c1cccc(NC(=S)Nc2ccc3c(Cl)c(OCCBr)oc(=O)c3c2)c1` belongs 157 to 158 °C; to `O=C(NCc1ccncc1)c1ccnc(N2CCN(CC3CC3)C2=O)c1`, 160 to 162 °C.
To `O=C1CN(Cc2ccccc2)C(=O)[C@@H](Cc2c[nH]c3ccccc23)N1` belongs 207 to 208 °C; to `COc1cnn(-c2cccc(CBr)c2)c(=O)c1OC`, 67 to 69 °C; to `Cn1cncc1C(O)(c1ccc(F)cc1)c1ccc2nc(Cl)nc(-c3cccc(Cl)c3)c2c1` (configuration not stated), 212 °C.
`CCOC(=O)c1cn(-c2ccc(C(F)(F)F)cc2)nc1C(C)C` registered a melting point of 74 to 75 °C.
The value for `Nc1cc(-c2ccccn2)cc2nc(-c3ccccc3)nn12` was 278 to 280 °C; that for `O=C(Nc1ccc(-n2nc(C(F)(F)F)cc2C(F)(F)F)cc1)N1CCOCC1` was 185 to 186 °C; that for `Cc1cc(C[C@H]2NC(=O)O[C@H]2c2ccc(F)cc2)cc(OC(F)(F)C(F)F)c1` (racemic) was 107 to 108 °C.
`Cc1cc(C(=O)NCCO)ncc1C(c1c(F)ccc(F)c1F)S(=O)(=O)CCC(F)(F)F` (configuration not stated) showed a melting point of 146 to 147 °C.
The compound `c1cnc2c(N3CCC(N4CCN(c5cccc6[nH]ccc56)CC4)CC3)cccc2c1` yielded a melting point of 256 °C.
